The values below come from patent US11952338B2, “Anticonvulsant compounds” (OWEN-BARRY PHARMACEUTICALS INC., priority 2017, dated 2024).

SMILES strings stand for the structures.

Series [1] has as its system rodent model of traumatic brain injury/stress. Kind of series: rodent model of traumatic brain injury/stress. It counts as in vivo, rat. The text has this:
FIG. 6 is an electrographic record of activity from the amygdala of a rat which has undergone traumatic brain injury and has been stressed (tail pinch). […] After moderate traumatic brain injury under control conditions, stress induces epileptiform activity in the amygdala. This activity is shown on the left in FIG. 6, where a stressor induces increased activity. […] On the right in FIG. 6, it is evident that the compound of Example 1 prevents the induction of this response and is particularly effective in reducing high frequency activity (i.e. >250 Hz) that is considered to be epileptogenic. This electrophysiological response in the control traumatic brain injury rats was accompanied by stage 2 to 3 seizures (Racine scale: av. 2.0±0.5 n=6 rats). These behavioral responses were blocked in the traumatic brain injury rats treated with the compound of Example 1.

The nature of series [2]: detection in rat blood after oral or intravenous administration of Example 1. It counts as in vivo. Conditions: for detection in blood: rats dosed with Example 1 orally or by vein injection, over 24 hours. As for the experimental part:
FIG. 7 is a graph showing the detection of the compounds of Example 1 and Example 2 in rat blood after oral or intravenous administration of the compound of Example 1.
FIG. 8 is a graph showing the time it takes for the compound of Example 1 to be converted in vivo to the compound of Example 2.
All rats were dosed with the compound of Example 1 either orally or by vein injection.

The subject of series [3] is isolated rat brain slices. Kind of series: voltage sensitive dye imaging of electrically stimulated brain slices. It counts as cell-based. The method, then:
The compounds described in the above examples display activity in in vitro and in vivo assays that track brain electrical activity. A first assay is conducted using voltage sensitive dye imaging. This is done on isolated rat brain slices kept viable in artificial cerebral spinal fluid (ACSF). Electrically stimulating the slice activates the neural assemblies therein. A voltage sensitive dye, such as, di-4-ANEPPS, is incubated with a brain slice for 1 hour in a suitable solution that enhances the dye penetration into the tissue. The dye reacts to changes in voltage across the cell membrane of the neurons in the brain slice. The example compounds are added to the ACSF at known concentration between 50 and 200 nM. The brain slices are then subjected to an electrical stimulus that activates the neurons in the slice. As the dye reacts to the change in voltage, which can be observed and quantified, the degree to which activation of the brain is dampened by the presence of the example compound is evaluated.

The subject of series [4] is voltage-gated sodium channels. Kind of series: patch clamp electrophysiology on cultured cortical neurons. The class given is cell-based, rat. The following applies: 100 μM. The method, then:
In another assay, the inhibition by the example compounds on the activity of voltage-gated sodium channels is determined using patch clamp electrophysiology. This analysis is done on cultured cortical neurons isolated from rats. […] This was done by assessing the suppression of the voltage gated sodium channel activity 16 ms after a test pulse.
Under control conditions, recovery occurs at a rate of about 13 ms. In the presence of 100 μM of the compound of Example 1, recovery is slowed to a rate of about 26 ms, and recovery is substantially complete after about 50 ms. […] This is a desirable property for antiseizure compounds, as little or no block of normal function occurs, while reducing (epileptic) activity that occurs at high frequency.

Series [5] has as its system rodent kindling model of epilepsy (partial complex seizures). Kind of series: amygdala kindling model of epilepsy. Conditions: 20 mg/kg. The class given is in vivo, rat. The method, then: FIG. 4 is a summary of data showing the prevention, by the compound of Example 1 at a dose of 20 mg/kg, of stage 5 seizures in an animal model of partial complex seizures, using the amygdala kindling model of epilepsy. FIG. 5 is a graph showing that the pre-treatment of rats (20 mg/kg) undergoing the amygdala kindling procedure prevents the development of stage 5 seizures. […] This model produces partial complex seizures that are similar to temporal lobe seizures experienced by humans. […] Therefore, compounds according to the present invention, including preferably the compound of Example 1, may be used in prophylactic treatment or prevention of epileptogenesis.

A short description of series [6]: stability in human plasma. The class given is in vitro ADME. The following applies: human plasma dosed with Example 1. The text has this: FIG. 9 is a graph showing the stability of the compound of Example 2 in human plasma once converted from the compound of Example 1.

In the case of `COC(=O)c1ccc(C2=CC(=O)CC(C)(C)C2)cc1` [Example 1, Methyl 3′,3′-dimethyl-5′-oxo-2′,3′,4′,5′-tetrahydro-[1,1′-biphenyl]-4-carboxylate], the “induction of seizure (epileptiform) activity in the amygdala by stress” value in series [1] (after moderate traumatic brain injury, tail pinch) is recorded as “prevents the induction of seizure activity”. Further, the “behavioral responses (stage 2 to 3 seizures, Racine scale)” value in series [1] (traumatic brain injury rats) was “blocked”. Moreover, the “time course of conversion of Example 1 to Example 2” value in series [2] (rats dosed with 20 mg/kg of Example 1) is listed as “substantially complete within one hour”. In series [2], the detection in blood entry is “only detectable as the free acid”. Also, in series [3], the “effect on amplitude and duration of the response” value was “reduced both amplitude and duration of the response”. Besides, the “suppression of activation of the brain slice activity” value was 29±5% in series [3] (50 nM) and 48±5% in series [3] (200 nM). In addition, the reduction of activity in series [3] (60 pulses/second) came to 48%. Also, in series [3] (stimulation frequency of 20 pulses/second), the “activity at low stimulation frequency” value is listed as “little or no activity”. In addition, the recovery from inactivation in series [4] came to 100%. In addition, the “time after which recovery is substantially complete” value in series [4] is given as “about 50 ms”. Moreover, the “rate of recovery of sodium channel inactivation” value in series [4] (control about 13 ms) was “about 26 ms”. Besides, in series [5] (oral administration), the “stage 5 seizures” value was “prevents stage 5 seizures from occurring”. Further, the “development of epileptic seizures” value in series [5] (prior prophylactic dosing) is “prevents the onset of seizures”.

As to `CC1(C)CC(=O)C=C(c2ccc(C(=O)O)cc2)C1` [Example 2, 3′,3′-Dimethyl-5′-oxo-2′,3′,4′,5′-tetrahydro-[1,1′-biphenyl]-4-carboxylic acid], the detection in blood result in series [2] is recorded as “the only molecule detected in significant quantities”. Further, the “stability in human plasma” value in series [6] was “stable and is not further converted to another molecule”.
